From patent publication US12560588B2, “High-efficiency screening method for RNA-targeting drugs using nanopores” (KOREA RESEARCH INSTITUTE OF BIOSCIENCE AND BIOTECHNOLOGY, priority 2020, dated 2026)

Test system: ARS mutant (ARS-Mut) with four base mutations (U28G, G42C, U47C and U51C)
Type: binding

Nc1ncnc2nc[nH]c12 [adenine]
change versus free ARS-Mut: not much different
td: 0.50 ms
